Test results: ChEMBL document CHEMBL1143618, “Discovery of a beta-MSH-derived MC-4R selective agonist” (J Med Chem, 2005)

Key:
[1] = target: Melanocyte-stimulating hormone receptor (Homo sapiens, UniProt Q01726); test: Inhibition of [125I]NDP-alpha-MSH binding to melanocortin-1 receptor expressed in HEK293 cells; type: cell-based
[2] = target: Melanocortin receptor 5 (Homo sapiens, UniProt P33032); test: Inhibition of [125I]NDP-alpha-MSH binding to melanocortin-5 receptor expressed in HEK293 cells; type: cell-based
[3] = target: T1, Melanocortin receptor 4 (Homo sapiens, UniProt P32245); test: Inhibition of [125I]NDP-alpha-MSH binding to melanocortin-4 receptor expressed in HEK293 cells; type: cell-based
[4] = target: T2, Melanocortin receptor 3 (Homo sapiens, UniProt P41968); test: Inhibition of [125I]-NDP-alpha-MSH binding to melanocortin-3 receptor expressed in HEK293 cells; type: cell-based
[5] = target: T1, Melanocortin receptor 4; test: Agonist activity at human Melanocortin-4 receptor as peptide required for 50% maximal cAMP release (n > or =2); type: functional
[6] = target: Melanocortin receptor 4 (Rattus norvegicus, UniProt P70596); test: Binding affinity for rat melanocortin-4 receptor
[7] = target: T2, Melanocortin receptor 3; test: Agonist activity at human Melanocortin-3 receptor as peptide required for 50% maximal cAMP release; type: functional

T1 sequence (P32245 whole entry): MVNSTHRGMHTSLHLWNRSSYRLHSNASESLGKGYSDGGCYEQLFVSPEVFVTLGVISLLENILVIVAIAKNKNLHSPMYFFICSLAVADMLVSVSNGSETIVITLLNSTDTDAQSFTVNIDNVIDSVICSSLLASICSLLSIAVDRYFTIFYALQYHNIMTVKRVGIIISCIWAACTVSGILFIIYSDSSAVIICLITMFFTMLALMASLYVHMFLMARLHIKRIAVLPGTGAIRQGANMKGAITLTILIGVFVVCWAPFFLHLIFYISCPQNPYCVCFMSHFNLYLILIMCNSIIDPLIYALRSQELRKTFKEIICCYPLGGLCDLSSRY
Sequence of Melanocyte-stimulating hormone receptor (Q01726 whole entry): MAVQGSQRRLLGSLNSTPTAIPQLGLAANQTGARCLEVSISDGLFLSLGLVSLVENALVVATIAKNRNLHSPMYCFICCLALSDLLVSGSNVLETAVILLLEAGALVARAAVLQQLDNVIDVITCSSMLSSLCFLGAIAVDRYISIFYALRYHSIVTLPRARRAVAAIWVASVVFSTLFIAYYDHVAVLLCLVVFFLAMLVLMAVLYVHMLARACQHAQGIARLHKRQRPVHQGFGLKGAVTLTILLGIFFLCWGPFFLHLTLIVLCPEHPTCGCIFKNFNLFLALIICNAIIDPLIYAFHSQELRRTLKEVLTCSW
T2 sequence (P41968 whole entry): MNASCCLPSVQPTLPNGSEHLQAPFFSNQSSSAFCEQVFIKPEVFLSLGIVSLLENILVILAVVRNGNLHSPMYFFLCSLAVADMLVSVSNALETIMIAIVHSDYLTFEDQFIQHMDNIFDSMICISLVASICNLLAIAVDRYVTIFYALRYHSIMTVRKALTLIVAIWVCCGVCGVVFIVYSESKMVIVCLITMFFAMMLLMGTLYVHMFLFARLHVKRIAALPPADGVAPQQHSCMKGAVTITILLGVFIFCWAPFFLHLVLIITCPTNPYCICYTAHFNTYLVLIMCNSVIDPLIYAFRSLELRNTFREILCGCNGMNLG
Sequence of Melanocortin receptor 5 (P33032 whole entry): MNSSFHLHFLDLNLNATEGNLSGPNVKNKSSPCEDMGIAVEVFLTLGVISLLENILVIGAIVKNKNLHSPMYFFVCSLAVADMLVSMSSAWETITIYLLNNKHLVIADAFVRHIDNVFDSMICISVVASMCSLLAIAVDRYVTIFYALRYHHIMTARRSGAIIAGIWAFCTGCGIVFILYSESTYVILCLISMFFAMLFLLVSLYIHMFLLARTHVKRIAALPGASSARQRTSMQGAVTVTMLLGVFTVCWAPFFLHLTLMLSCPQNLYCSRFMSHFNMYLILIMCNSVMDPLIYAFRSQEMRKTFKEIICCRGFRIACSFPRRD
Sequence of Melanocortin receptor 4 (Rattus norvegicus, UniProt P70596) (P70596 whole entry): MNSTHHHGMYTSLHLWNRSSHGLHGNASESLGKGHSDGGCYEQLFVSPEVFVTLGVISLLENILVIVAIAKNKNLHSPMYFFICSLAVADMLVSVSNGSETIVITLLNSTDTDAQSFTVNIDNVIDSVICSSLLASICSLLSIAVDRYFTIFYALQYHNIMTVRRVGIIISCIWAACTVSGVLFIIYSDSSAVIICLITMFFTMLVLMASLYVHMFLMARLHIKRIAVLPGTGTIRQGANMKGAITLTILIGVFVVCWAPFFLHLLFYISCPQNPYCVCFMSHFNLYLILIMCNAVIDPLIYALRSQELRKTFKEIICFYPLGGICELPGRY

Ki [1] [nM] | Ki [2] [nM] | Ki [3] [nM] | Ki [4] [nM] | EC50 [5] [nM] | Ki [6] [nM] | EC50 [7] [nM] | Compound
67.1 | > 500 | – | – | – | – | – | CC(=O)N[C@H]1CSSC[C@@H](C(N)=O)NC(=O)[C@H](Cc2c[nH]c3ccccc23)NC(=O)[C@H](CCCNC(=N)N)NC(=O)[C@@H](Cc2ccccc2)NC(=O)[C@H](Cc2c[nH]cn2)NC(=O)[C@H](CCC(=O)O)NC1=O
> 500 | > 500 | 6.6 | > 500 | 0.54 | – | – | CC(=O)N[C@@H](Cc1ccc(O)cc1)C(=O)N[C@@H](CCCNC(=N)N)C(=O)N[C@H]1CSSC[C@@H](C(N)=O)NC(=O)[C@H](Cc2c[nH]c3ccccc23)NC(=O)[C@H](CCCNC(=N)N)NC(=O)[C@@H](Cc2ccccc2)NC(=O)[C@H](Cc2cncn2C)NC(=O)[C@H](CCC(=O)O)NC1=O
17.1 | > 500 | 0.77 | – | 0.27 | 0.52 | – | CC(=O)N[C@@H](Cc1ccc(O)cc1)C(=O)N[C@@H](CCCNC(=N)N)C(=O)N[C@H]1CSSC[C@@H](C(N)=O)NC(=O)[C@H](Cc2c[nH]c3ccccc23)NC(=O)[C@H](CCCNC(=N)N)NC(=O)[C@@H](Cc2ccccc2)NC(=O)[C@H](Cc2c[nH]cn2)NC(=O)[C@H](CCC(=O)O)NC1=O
16.8 | > 500 | – | 56.8 | – | 0.39 | 1.61 | CC(=O)N[C@H](CCCNC(=N)N)C(=O)N[C@H]1CSSC[C@@H](C(N)=O)NC(=O)[C@H](Cc2c[nH]c3ccccc23)NC(=O)[C@H](CCCNC(=N)N)NC(=O)[C@@H](Cc2ccccc2)NC(=O)[C@H](Cc2c[nH]cn2)NC(=O)[C@H](CCC(=O)O)NC1=O
121 | 37.8 | 0.3 | 6.84 | 0.65 | – | – | CC(=O)N[C@@H](Cc1ccc(O)cc1)C(=O)N[C@@H](CCCN=C(N)N)C(=O)N[C@H]1CSSC[C@@H](C(N)=O)NC(=O)[C@H](Cc2c[nH]c3ccccc23)NC(=O)[C@H](CCCN=C(N)N)NC(=O)[C@@H](Cc2ccc3ccccc3c2)NC(=O)[C@H](Cc2c[nH]cn2)NC(=O)[C@H](CCC(=O)O)NC1=O
0.09 | 0.26 | 0.27 | 0.11 | 0.56 | – | – | CSCC[C@H](NC(=O)[C@H](CCCNC(=N)N)NC(=O)[C@H](Cc1ccc(O)cc1)NC(C)=O)C(=O)N[C@@H](CCC(=O)O)C(=O)N[C@@H](Cc1cnc[nH]1)C(=O)N[C@H](Cc1ccccc1)C(=O)N[C@@H](CCCNC(=N)N)C(=O)N[C@@H](Cc1c[nH]c2ccccc12)C(=O)NCC(=O)N[C@@H](CO)C(=O)N1CCC[C@H]1C(=O)N1CCC[C@H]1C(=O)N[C@@H](CCCCN)C(=O)N[C@@H](CC(=O)O)C(N)=O
10.3 | > 500 | – | 33.8 | – | – | 0.68 | CC(=O)N[C@@H](CCCNC(=N)N)C(=O)N[C@H]1CSSC[C@@H](C(N)=O)NC(=O)[C@H](Cc2c[nH]c3ccccc23)NC(=O)[C@H](CCCNC(=N)N)NC(=O)[C@@H](Cc2ccccc2)NC(=O)[C@H](Cc2c[nH]cn2)NC(=O)[C@H](CCC(=O)O)NC1=O
9.91 | 239 | 0.28 | 15.9 | 0.12 | – | – | CC(=O)N[C@@H](Cc1ccc(O)cc1)C(=O)N[C@@H](CCCNC(=N)N)C(=O)N[C@H]1CSSC[C@@H](C(N)=O)NC(=O)[C@H](Cc2c[nH]c3ccccc23)NC(=O)[C@H](CCCNC(=N)N)NC(=O)[C@@H](Cc2ccc(F)cc2)NC(=O)[C@H](Cc2c[nH]cn2)NC(=O)[C@H](CCC(=O)O)NC1=O
8.22 | 42.2 | 0.14 | 3.12 | 0.06 | – | – | CC(=O)N[C@@H](Cc1ccc(O)cc1)C(=O)N[C@@H](CCCNC(=N)N)C(=O)N[C@H]1CSSC[C@@H](C(N)=O)NC(=O)[C@H](Cc2c[nH]c3ccccc23)NC(=O)[C@H](CCCNC(=N)N)NC(=O)[C@@H](Cc2ccc(Cl)cc2)NC(=O)[C@H](Cc2c[nH]cn2)NC(=O)[C@H](CCC(=O)O)NC1=O
0.21 | 0.84 | 0.55 | 1.44 | 0.16 | – | – | CSCC[C@H](NC(=O)[C@H](CCCNC(=N)N)NC(=O)[C@H](Cc1ccc(O)cc1)NC(C)=O)C(=O)N[C@@H](CCC(=O)O)C(=O)N[C@@H](Cc1cnc[nH]1)C(=O)N[C@H](Cc1ccccc1)C(=O)N[C@@H](CCCNC(=N)N)C(=O)N[C@@H](Cc1c[nH]c2ccccc12)C(=O)NCC(N)=O
0.57 | > 500 | 0.52 | 7.91 | 0.24 | – | – | CC(=O)N[C@@H](Cc1ccc(O)cc1)C(=O)N[C@@H](CCCN=C(N)N)C(=O)N[C@H]1CSSC[C@@H](C(=O)N[C@@H](CO)C(=O)N2CCC[C@H]2C(=O)N2CCC[C@H]2C(=O)N[C@@H](CCCCN)C(=O)N[C@@H](CC(=O)O)C(N)=O)NC(=O)[C@H](Cc2c[nH]c3ccccc23)NC(=O)[C@H](CCCN=C(N)N)NC(=O)[C@@H](Cc2ccccc2)NC(=O)[C@H](Cc2c[nH]cn2)NC(=O)[C@H](CCC(=O)O)NC1=O
0.89 | 76.9 | – | 10.6 | – | – | – | CSCC[C@H](NC(=O)[C@H](CCCN=C(N)N)NC(=O)[C@H](Cc1ccc(O)cc1)NC(=O)[C@@H]1CCCN1C(=O)CNC(=O)[C@H](CCC(=O)O)NC(=O)[C@H](CC(=O)O)NC(=O)[C@H](CCCCN)NC(=O)[C@H](CCCCN)NC(=O)[C@H](CCC(=O)O)NC(=O)[C@H](C)N)C(=O)N[C@@H](CCC(=O)O)C(=O)N[C@@H](Cc1c[nH]cn1)C(=O)N[C@@H](Cc1ccccc1)C(=O)N[C@@H](CCCN=C(N)N)C(=O)N[C@@H](Cc1c[nH]c2ccccc12)C(=O)NCC(=O)N[C@@H](CO)C(=O)N1CCC[C@H]1C(=O)N1CCC[C@H]1C(=O)N[C@@H](CCCCN)C(=O)N[C@@H](CC(=O)O)C(=O)O
0.51 | 24.8 | 5.28 | 9.23 | 0.67 | – | – | H-GPYRMEHFRWGSPPKD-NH2
147 | > 500 | 30.5 | > 500 | 5.24 | – | – | CC(=O)N[C@@H](Cc1ccc(O)cc1)C(=O)N[C@@H](CCCN=C(N)N)C(=O)N[C@H]1CSSC[C@@H](C(N)=O)NC(=O)[C@H](Cc2c[nH]c3ccccc23)NC(=O)[C@H](CCCN=C(N)N)NC(=O)[C@H](Cc2ccccc2)NC(=O)[C@H](Cc2c[nH]cn2)NC(=O)[C@H](CCC(=O)O)NC1=O
49.4 | > 500 | 2.54 | 313 | 0.79 | – | – | CC(=O)N[C@@H](Cc1ccc(O)cc1)C(=O)N[C@@H](CCCNC(N)=O)C(=O)N[C@H]1CSSC[C@@H](C(N)=O)NC(=O)[C@H](Cc2c[nH]c3ccccc23)NC(=O)[C@H](CCCNC(=N)N)NC(=O)[C@@H](Cc2ccccc2)NC(=O)[C@H](Cc2c[nH]cn2)NC(=O)[C@H](CCC(=O)O)NC1=O
2.73 | 62.1 | 13.2 | 166 | 0.92 | – | – | CSC[C@H](NC(=O)[C@H](Cc1c[nH]c2ccccc12)NC(=O)[C@H](CCCNC(=N)N)NC(=O)[C@@H](Cc1ccccc1)NC(=O)[C@H](Cc1cnc[nH]1)NC(=O)[C@H](CCC(=O)O)NC(=O)[C@H](CSC)NC(=O)[C@H](CCCNC(=N)N)NC(=O)[C@H](Cc1ccc(O)cc1)NC(C)=O)C(N)=O
15.8 | > 500 | 1.22 | – | 0.1 | – | – | CC(=O)N[C@@H](Cc1ccc(O)cc1)C(=O)N[C@@H](CCCCN)C(=O)N[C@H]1CSSC[C@@H](C(N)=O)NC(=O)[C@H](Cc2c[nH]c3ccccc23)NC(=O)[C@H](CCCNC(=N)N)NC(=O)[C@@H](Cc2ccccc2)NC(=O)[C@H](Cc2c[nH]cn2)NC(=O)[C@H](CCC(=O)O)NC1=O
